{"source": "patent US5981777A", "about": "“Recovery of taxanes from plant material” (The Regents of the University of California, priority 1997, dated 1999)", "key": {"[1]": {"test_system": "taxol-specific (TA12) monoclonal antibody", "assay": "indirect competitive immunoassay, cross-reactivity with TA12", "design": "species or system mouse", "conditions": "> x = highest concentration tested (270 or 300 ng/ml), read-out: IC50 TA12 (concentration of analyte required to inhibit antibody binding to solid phase antigen by 50%)", "description": "(§1) A preferred antibody is TA14 available from Hawaii Biotechnology Group is particularly useful for this purpose. The cross-reactivity of polyclonal anti-taxane (TA11) and taxol- (TA12), baccatin III- (TA13), or \"generic taxane\"-specific (TA14) monoclonal antibodies as determined by indirect competitive immunoassays is set forth in Table 1. All of these antibodies are available from Hawaii Biotechnology group.\n(§2) ^a Crossreactivity is expressed as the concentration of analyte\n(§3) required to inhibit antibody binding to solid phase antigen by 50%\n(§4) (IC50) in the indicated competitive immunoassay. Values expressed as\n(§5) > x represent the highest concentration tested (either 270 or 300 ng/ml)."}, "[2]": {"test_system": "polyclonal anti-taxane (TA11) antibody", "assay": "indirect competitive immunoassay, cross-reactivity with TA11", "conditions": "> x = highest concentration tested (270 or 300 ng/ml), read-out: IC50 TA11 (concentration of analyte required to inhibit antibody binding to solid phase antigen by 50%)", "description": "as §1, §2, §3, §4, §5"}, "[3]": {"test_system": "\"generic taxane\"-specific (TA14) monoclonal antibody", "assay": "indirect competitive immunoassay, cross-reactivity with TA14", "design": "species or system mouse", "conditions": "> x = highest concentration tested (270 or 300 ng/ml), read-out: IC50 TA14 (concentration of analyte required to inhibit antibody binding to solid phase antigen by 50%)", "description": "as §1, §2, §3, §4, §5"}, "[4]": {"test_system": "baccatin III-specific (TA13) monoclonal antibody", "assay": "indirect competitive immunoassay, cross-reactivity with TA13", "design": "species or system mouse", "conditions": "> x = highest concentration tested (270 or 300 ng/ml), read-out: IC50 TA13 (concentration of analyte required to inhibit antibody binding to solid phase antigen by 50%)", "description": "as §1, §2, §3, §4, §5"}, "[5]": {"test_system": "\"generic taxane\"-specific (TA14) monoclonal antibody", "conditions": "in words; Kingston et al. J. Nat. Prod. 53:1-12 (1990); cited from earlier work"}, "[6]": {"test_system": "taxol-specific (TA12) monoclonal antibody", "conditions": "in words; cited from earlier work"}, "[7]": {"test_system": "baccatin III-specific (TA13) monoclonal antibody", "conditions": "in words; cited from earlier work"}}, "data": [{"compound": "CC(=O)O[C@@]12CO[C@@H]1C[C@@H](O)[C@@]1(C)C(=O)[C@H](O)C3=C(C)[C@@H](O)C[C@@](O)([C@@H](OC(=O)c4ccccc4)[C@H]21)C3(C)C", "note": "[7-epi-10-deacetylbaccatin III]", "values": [{"measurement": "IC50", "setting": "[1]", "result": "> 496", "unit": "nM"}, {"measurement": "IC50", "setting": "[2]", "result": 34, "unit": "nM"}]}, {"compound": "CC(=O)O[C@@]12CO[C@@H]1C[C@@H](O)[C@@]1(C)C(=O)[C@H](O)C3=C(C)[C@@H](OC(=O)[C@H](O)[C@@H](NC(=O)c4ccccc4)c4ccccc4)C[C@@](O)([C@@H](OC(=O)c4ccccc4)[C@H]21)C3(C)C", "note": "[7-epi-10-deacetyltaxol]", "values": [{"measurement": "IC50", "setting": "[3]", "result": 15, "unit": "nM"}, {"measurement": "IC50", "setting": "[1]", "result": 25, "unit": "nM"}, {"measurement": "IC50", "setting": "[2]", "result": 1.2, "unit": "nM"}, {"measurement": "IC50", "setting": "[4]", "result": "> 333", "unit": "nM"}]}, {"compound": "CC(=O)O[C@H]1C(=O)[C@]2(C)[C@H](O)C[C@H]3OC[C@@]3(OC(C)=O)[C@H]2[C@H](OC(=O)c2ccccc2)[C@]2(O)C[C@H](OC(=O)[C@H](O)[C@@H](NC(=O)c3ccccc3)c3ccccc3)C(C)=C1C2(C)C", "note": "[7-epi-taxol]", "values": [{"measurement": "IC50", "setting": "[3]", "result": 50, "unit": "nM"}, {"measurement": "IC50", "setting": "[1]", "result": 80, "unit": "nM"}, {"measurement": "IC50", "setting": "[2]", "result": 8, "unit": "nM"}, {"measurement": "IC50", "setting": "[4]", "result": "> 316", "unit": "nM"}]}, {"compound": "CC(=O)O[C@@]12CO[C@@H]1C[C@H](O[C@@H]1OC[C@@H](O)[C@H](O)[C@H]1O)[C@@]1(C)C(=O)[C@H](O)C3=C(C)[C@@H](OC(=O)[C@H](O)[C@@H](NC(=O)c4ccccc4)c4ccccc4)C[C@@](O)([C@@H](OC(=O)c4ccccc4)[C@H]21)C3(C)C", "note": "[7-xylosyl-10-deacetyltaxol]", "values": [{"measurement": "IC50", "setting": "[2]", "result": 1.8, "unit": "nM"}]}, {"compound": "CC(=O)O[C@@]12CO[C@@H]1C[C@H](O)[C@@]1(C)C(=O)[C@H](O)C3=C(C)[C@@H](OC(=O)[C@H](O)[C@@H](NC(=O)c4ccccc4)c4ccccc4)C[C@@](O)([C@@H](OC(=O)c4ccccc4)[C@H]21)C3(C)C", "note": "[10-deacelyltaxol]", "values": [{"measurement": "IC50", "setting": "[2]", "result": 0.7, "unit": "nM"}]}, {"compound": "CC(=O)O[C@@]12CO[C@@H]1C[C@H](O)[C@@]1(C)C(=O)[C@H](O)C3=C(C)[C@@H](O)C[C@@](O)([C@@H](OC(=O)c4ccccc4)[C@H]21)C3(C)C", "note": "[10-deacetylbaccatin III]", "values": [{"measurement": "cross-reaction with TA14", "setting": "[5]", "result": "cross reacts"}]}, {"compound": "CC(=O)O[C@H]1C(=O)[C@@]2(C)[C@H]([C@H](OC(=O)c3ccccc3)[C@]3(O)C[C@H](OC(=O)[C@H](O)[C@@H](NC(=O)c4ccccc4)c4ccccc4)C(C)=C1C3(C)C)[C@]1(OC(C)=O)CO[C@@H]1C[C@@H]2O", "note": "[Taxol ® (paclitaxel), paclitaxel]", "values": [{"measurement": "reactivity with TA12", "setting": "[6]", "result": "specifically reactive"}, {"measurement": "IC50", "setting": "[2]", "result": 0.5, "unit": "nM"}, {"measurement": "cross-reaction with TA14", "setting": "[5]", "result": "cross reacts"}]}, {"compound": "CC(=O)O[C@@]12CO[C@@H]1C[C@H](O)[C@@]1(C)C(=O)[C@H](O)C3=C(C)[C@@H](OC(=O)[C@H](O)[C@@H](NC(=O)OC(C)(C)C)c4ccccc4)C[C@@](O)([C@@H](OC(=O)c4ccccc4)[C@H]21)C3(C)C", "note": "[Taxotere ® (docetaxel), docetaxel]", "values": [{"measurement": "IC50", "setting": "[3]", "result": 10, "unit": "nM"}, {"measurement": "IC50", "setting": "[1]", "result": "> 318", "unit": "nM"}, {"measurement": "IC50", "setting": "[4]", "result": "> 318", "unit": "nM"}]}, {"compound": "CC(=O)O[C@H]1C(=O)[C@@]2(C)[C@H]([C@H](OC(=O)c3ccccc3)[C@]3(O)C[C@H](O)C(C)=C1C3(C)C)[C@]1(OC(C)=O)CO[C@@H]1C[C@@H]2O", "note": "[baccatin III]", "values": [{"measurement": "cross-reaction with TA14", "setting": "[5]", "result": "cross reacts"}, {"measurement": "binding to TA13", "setting": "[7]", "result": "binds with equal affinity"}]}, {"compound": "CC(=O)O[C@H]1C(=O)[C@]2(C)[C@H](O)C[C@H]3OC[C@@]3(OC(C)=O)[C@H]2[C@H](OC(=O)c2ccccc2)[C@]2(O)C[C@H](O)C(C)=C1C2(C)C", "note": "[baccatin V]", "values": [{"measurement": "binding to TA13", "setting": "[7]", "result": "binds with equal affinity"}]}, {"compound": "C/C=C(\\C)C(=O)N[C@@H](c1ccccc1)[C@@H](O)C(=O)O[C@H]1C[C@@]2(O)[C@@H](OC(=O)c3ccccc3)[C@@H]3[C@]4(OC(C)=O)CO[C@@H]4C[C@H](O)[C@@]3(C)C(=O)[C@H](OC(C)=O)C(=C1C)C2(C)C", "note": "[cephalomannine]", "values": [{"measurement": "IC50", "setting": "[2]", "result": 1, "unit": "nM"}, {"measurement": "cross-reaction with TA14", "setting": "[5]", "result": "cross reacts"}]}]}
